Reference: US20220000894A1, “Substance for treatment or prevention of diseases, method for designing the same, and method for preparing the same” (priority 2018, published 2022)

Test system: patients with allergic rhinitis
Experiment: Clinical application trial for treatment of allergic rhinitis
Format: in vivo, human
Method: 1. Clinical data: 60 cases (a total number) of outpatients and inpatients with allergic rhinitis were enrolled, and were randomly divided into a treatment group with 30 patients and a control group with 30 patients.
2. Diagnosis criteria: 2 or more clinical symptoms such as sneezing, clear water-like nasal discharge, nasal congestion, and nasal itching, appearing continuously or continually for 1 hour or more every day. It may be accompanied by eye symptoms such as eye itching and conjunctival hyperemia. Common signs often include pale nasal mucosa, edema, and watery nasal discharge. Positive in the allergen skin prick test.
3. […] The patients in the control group orally took loratadine 10 mg per time, once day, for 30 days.
4. […] Total effective rate=cured rate+effective rate.

CCOC(=O)N1CCC(=C2c3ccc(Cl)cc3CCc3cccnc32)CC1 [loratadine]
recurrence after treatment (6-month follow-up / after drug discontinuance): allergic symptoms appeared after contact with allergens after drug discontinuance
Effective (number of patients) (30 patients per group): 20
Ineffective (number of patients) (30 patients per group): 10
Total effective rate (%) (cured rate + effective rate) (30 patients per group): 66.67%
Cured (number of patients) (30 patients per group, cured = symptoms and signs disappear for 60 days without recurrence): 0
adverse reactions occurred (control group of 30 patients): 5 cases
